Laboratory results: patent publication US4740499A, “Method of enhancing the bioactivity of atrial peptides” (Monsanto Company, priority 1986, dated 1988)

Assay: Plasma AP-III levels (radioimmunoassay) in rats, first test: constant AP-III infusion, varied thiorphan dose
Assay type: in vivo, rat
Conditions: for AP-III Plasma concn. / Increase of plasma AP-III levels over control levels: rat; for AP-III Plasma concn.: AP-III 833 ng/kg/min i.v. infusion; for Increase of plasma AP-III levels over control levels: AP-III 833 ng/kg/min
Protocol: Plasma levels of atriopeptin III (AP-III) were tested in rats in which the AP-III was infused intravenously both with and without contemporaneous administration of thiorphan.
Male Sprague-Dawley rats, 240-310 g, were used for all tests. The rats were housed in the test facilities for at least 6 days before they were used.
Cannulas were made of PE-10 (polyethylene) tubing inserted and glued into a piece of PE-50 tubing. Rats were anesthetized with pentobarbital (50 mg/kg i.p.) and had cannulas inserted into the left femoral vein and artery. Both were inserted four cm into the vessels and tied securely. They were then tunnelled under the skin and brought out between the rat's shoulder blades and then cut so that only 1-2 cm was externalized. Cannulas were glued in place using Superglue and filled with saline containing 100 units heparin/ml. Rats were allowed to wake up and then housed individually with food and water ad libitum.
Two days after surgery, the rats were weighed and put into restraining cages that allowed limited movement. […] Blood was collected from the femoral artery and replaced with saline containing 10 units heparin/ml. In most tests, 0.3 ml blood was taken, except that when basal AP-III levels were measured 0.4 ml blood was withdrawn. Blood was immediately centrifuged in a microcentrifuge for one minute and plasma was frozen in plastic tubes placed on dry ice. Samples were kept in a -80° C. freezer until they were analyzed.
Thiorphan was dissolved in a minimal amount of 0.1 N NaOH to produce the sodium salt. The solution was immediately neutralized using 0.5 N HCl and diluted to a final concentration with 0.9% saline.
After taking the second sample, thiorphan was given as a bolus injection into the femoral artery and the line was flushed with 0.2 ml saline. The doses of thiorphan were 1,3,10 and 30 mg/kg; one set of rats received only a saline bolus as a control. Blood was taken 10,20,30 and 60 minutes after the injection of thiorphan. AP-III was infused during the entire experiment for a total of 90 minutes.
Plasma AP-III levels were analyzed by radioimmunoassay using a second antibody to separate free and bound AP-III. The label was ^125 I-AP-III that was purified by HPLC after iodination. Conditions were set so that 35-40% of the total counts were precipitated. The incubation medium contained sodium phosphate, pH 7.4, 0.25% bovine serum albumin (BSA), 0.5% sodium azide and 3% PEG-8000 (polyethylene glycol). The primary antibody was from a guinea pig immunized against AP-III. The incubations were done overnight at 6° C. The next day, 2 ml of 0.125% BSA was added to each tube and then they were centrifuged for 45 min at 3000 rpm. They were decanted and the radioactivity was counted in a Micromedic gamma counter. The standard curve contained 10 to 600 pg AP-III/tube. Only the linear portion of the curve was used for quantification. Plasma samples were diluted so that the AP-III concentrations were in the range of the standard curve.

Q: For `O=C(O)CNC(=O)C(CS)Cc1ccccc1` (racemic) [thiorphan, N-(DL-2-benzyl-3-mercapto-propionyl)glycine], which “AP-III Plasma concn.” value (thiorphan 1 mg/kg arterial bolus after 30 min sample, 40 min (10 min after thiorphan)) is on record?
A: The value was 23.2 ± 3.1 ng/mL.

Q: And the “AP-III Plasma concn.” value (thiorphan 1 mg/kg arterial bolus after 30 min sample, 50 min (20 min after thiorphan))?
A: Its value is 22.2 ± 3.9 ng/mL.

Q: What about the “AP-III Plasma concn.” value (thiorphan 1 mg/kg arterial bolus after 30 min sample, 60 min (30 min after thiorphan)) of the same compound?
A: Its value is 18.7 ± 2.2 ng/mL.

Q: And the “AP-III Plasma concn.” value (thiorphan 1 mg/kg arterial bolus after 30 min sample, 90 min (60 min after thiorphan))?
A: Its value is 15.3 ± 3.9 ng/mL.

Q: And the “AP-III Plasma concn.” value (thiorphan 3 mg/kg arterial bolus after 30 min sample, 40 min (10 min after thiorphan))?
A: Its value is 26.7 ± 3.5 ng/mL.

Q: And the “AP-III Plasma concn.” value (thiorphan 3 mg/kg arterial bolus after 30 min sample, 50 min (20 min after thiorphan))?
A: The value was 29.5 ± 4.0 ng/mL.

Q: And the “AP-III Plasma concn.” value (thiorphan 3 mg/kg arterial bolus after 30 min sample, 60 min (30 min after thiorphan))?
A: The value was 28.9 ± 5.6 ng/mL.

Q: What about the “AP-III Plasma concn.” value (thiorphan 3 mg/kg arterial bolus after 30 min sample, 90 min (60 min after thiorphan)) of the same compound?
A: The value was 21.2 ± 3.9 ng/mL.

Q: And the “AP-III Plasma concn.” value (thiorphan 10 mg/kg arterial bolus after 30 min sample, 40 min (10 min after thiorphan))?
A: The value was 24.7 ± 2.7 ng/mL.

Q: What about the “AP-III Plasma concn.” value (thiorphan 10 mg/kg arterial bolus after 30 min sample, 50 min (20 min after thiorphan)) of the same compound?
A: The value was 29.2 ± 3.1 ng/mL.

Q: What about the “AP-III Plasma concn.” value (thiorphan 10 mg/kg arterial bolus after 30 min sample, 60 min (30 min after thiorphan)) of the same compound?
A: Its value is 30.2 ± 4.8 ng/mL.

Q: What about the “AP-III Plasma concn.” value (thiorphan 10 mg/kg arterial bolus after 30 min sample, 90 min (60 min after thiorphan)) of the same compound?
A: The value was 25.5 ± 5.5 ng/mL.

Q: And the “AP-III Plasma concn.” value (thiorphan 30 mg/kg arterial bolus after 30 min sample, 40 min (10 min after thiorphan))?
A: Its value is 22.5 ± 2.7 ng/mL.

Q: And the “AP-III Plasma concn.” value (thiorphan 30 mg/kg arterial bolus after 30 min sample, 50 min (20 min after thiorphan))?
A: The value was 28.8 ± 5.6 ng/mL.

Q: And the “AP-III Plasma concn.” value (thiorphan 30 mg/kg arterial bolus after 30 min sample, 60 min (30 min after thiorphan))?
A: Its value is 30.7 ± 6.0 ng/mL.

Q: What about the “AP-III Plasma concn.” value (thiorphan 30 mg/kg arterial bolus after 30 min sample, 90 min (60 min after thiorphan)) of the same compound?
A: Its value is 31.3 ± 7.8 ng/mL.

Q: What about the “Increase of plasma AP-III levels over control levels” value (later times after thiorphan) of the same compound?
A: Its value is 3 fold.

Q: And the “Increase of plasma AP-III levels over control levels” value (ten minutes after injecting thiorphan)?
A: Its value is “at least 2 fold”.

Q: And the “Increase of AP-III levels upon intravenous infusion” value (rats, thiorphan 1-30 mg/kg of body weight)?
A: The value was “at least two-fold”.

Q: What about the “Plasma AP-III concentrations vs control, analysis of variance” value (thiorphan 1 mg/kg, all but the last time point) of the same compound?
A: Its value is “statistically different from control levels”.

Q: And the “Plasma AP-III concentrations vs control, analysis of variance” value (thiorphan 3, 10 and 30 mg/kg, all time points after thiorphan)?
A: Its value is “statistically different from control levels”.
